{"source": "patent US11154522B2", "about": "“Compositions and methods for treating acne vulgaris” (priority 2016, dated 2021)", "test": "Delivery of succinic acid to epidermis and dermis in presence of salicylic acid, Franz diffusion cells, different skin sample (Example 2)", "experimental": "Skin from a single donor was stored frozen at −20° C. until needed. The skin was removed from the freezer, allowed to equilibrate to room temperature, and then cut to ˜2 cm×2 cm pieces before testing. FDCs with a 3.3 ml receiver volume and 0.55 cm^2 diffusional area were used. De-aerated isotonic phosphate buffered saline solution at pH 7.4 (PBS) containing 0.01% NaN3 was used as a solvent system for the receptor well medium (“Receptor Fluid”). Receptor wells were filled with the Receptor Fluid. The upper flange of the FDC receptor well was coated with vacuum grease to ensure a complete seal. Pieces of skin were mounted on the receptor cells, the conventional donor wells applied, and the assembly clamped together with uniform pressure using a pinch clamp. After assembly of the FDC, the skin was allowed to hydrate for 20 minutes in contact with the receptor fluid. Any FDCs that evidenced any leakage during this period were discarded. The integrity and quality of the skin was tested prior to application of the test formulations through measurement of the transdermal flux of tritiated water. Skin pieces evidencing an excessively high tritiated water flux were discarded and the tritiated water fluxes of accepted skin pieces was used to guide the distribution of formulation samples over the skin piece set. After removal of the tritiated water samples from the donor wells, the clamp and donor wells were removed. The skin was tapped dry with a KimWipe® and the receptor well solutions was replenished with fresh receptor well medium. Six replicates of each of the formulations were examined, in a batch of 36 FDC's; each test formulation was applied at a quasi-infinite dose of 20 μL cm^2 on skin maintained at 32° C. throughout the experiment. The Receptor Fluid was stirred with a magnetic stir bar throughout. A sample was abstracted from each receptor well at each of 4, 8 and 20 h, the receptor well being replenished with fresh Receptor Fluid. The concentration of succinic acid in each receptor well sample was assayed by a verified LC-MS analytical method. At the end of the experiment (20 h), residual formulation was removed from the skin exterior with a pipette. The FDCs were then be disassembled and the skin washed twice with EtOH-Water 50-50 and wiped dry with a KimWipe®. The successive topmost layers of the stratum corneum were removed by three (3) times applying cellophane tape to the skin and then pulling off the tape. Tape strippings were discarded, the material present in those peripheral layers being considered absorbed only superficially. The epidermal and dermal layers were separated, using mild heating if required. The epidermal and dermal sections were placed into 4 ml glass vials. DMSO was used as an extraction solvent (“Extraction Solvent”) for succinic acid from epidermal and dermal tissue. Two ml of the Extraction Solvent was added to each vial and the vials allowed to incubate for 24 h. At the end of the extraction period, aliquots of the Extraction Solvent were drawn, filtered and analyzed by LC-MS.\nA topical formulation was prepared that contained 2% succinic acid, 1% salicylic acid (acne API), 15% ethanol, 15% propylene glycol, 3% Brij 30 and 15% of dimethyl isosorbide. The delivery of succinic to epidermis and dermis was tested as described in Example 1 in an independent experiment, using a different skin sample.", "note": "Read-outs that look alike come from different tables or passages of the source.", "data": [{"compound": "CCOCCOCCO", "note": "[Transcutol P]", "values": [{"measurement": "enhancement of delivery of succinic acid by other penetration enhancing molecules", "value": "did not result in enhanced delivery of succinic acid"}]}, {"compound": "O=C(O)CCC(=O)O", "note": "[succinic acid]", "values": [{"measurement": "succinic acid dose delivered to epidermis and dermis", "setting": "human, 22 h, 2 %, pH 7.4", "value": 33.22, "unit": "%"}, {"measurement": "fold lower amount delivered in absence vs presence of Brij30 and dimethyl isosorbide", "setting": "human, 22 h, pH 7.4", "value": 4.4, "unit": "fold"}, {"measurement": "succinic acid dose delivered to epidermis and dermis", "setting": "human, 22 h, pH 7.4", "value": 7.51, "unit": "%"}]}, {"compound": "Capric tryiglyceride GTCC", "values": [{"measurement": "enhancement of delivery of succinic acid by other penetration enhancing molecules", "value": "did not result in enhanced delivery of succinic acid"}]}, {"compound": "Polysorbate 20", "values": [{"measurement": "enhancement of delivery of succinic acid by other penetration enhancing molecules", "setting": "present in the formulation instead of Brij30 and dimethyl isosorbide", "value": "did not result in enhanced delivery of succinic acid"}]}, {"compound": "Polysorbate 80", "values": [{"measurement": "enhancement of delivery of succinic acid by other penetration enhancing molecules", "value": "did not result in enhanced delivery of succinic acid"}]}]}
